# Experimental data published in PubChem BioAssay (NCI).
# Where “and” joins values, the source holds several entries; their conditions need not be identical. Identical values can stand only once.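 A five-concentration, 48-hour dose response in 96-well plates underlies each endpoint, interpolated linearly between surrounding concentrations. Abbreviation: GI50, concentration required for 50% inhibition of growth. TGI denotes the concentration required for complete inhibition of growth.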
# Legend:
# Test in all cases: NCI-60 cell line screen, 48 h
# [1] = tested on: M14 melanoma
# [2] = tested on: SNB-19 CNS
# [3] = tested on: SNB-75 CNS
# [4] = tested on: SF-295 CNS
# [5] = tested on: 786-0 renal
# [6] = tested on: HS 578T breast
# [7] = tested on: OVCAR-8 ovarian
# [8] = tested on: PC-3 prostate
# [9] = tested on: SK-MEL-2 melanoma
# [10] = tested on: HOP-62 NSCLC
SMILES,GI50 [1],TGI [1],GI50 [2],TGI [2],GI50 [3],TGI [3],GI50 [4],TGI [4],GI50 [5],TGI [5],GI50 [6],TGI [6],GI50 [7],TGI [7],GI50 [8],TGI [8],GI50 [9],TGI [9],GI50 [10],TGI [10]
COc1cc(NC(=O)c2cc(O)c(C/C=C(\C)CCC=C(C)C)c(O)c2)cc2c1O[C@]1(C)CC[C@@H](O)C(C)(C)[C@H]1C2,1.48 µM,4.09 µM,1.36 µM,4.46 µM,0.444 µM,2.75 µM,0.306 µM,1.52 µM,0.604 µM,6.44 µM,0.348 µM,8.75 µM,2.58 µM,14.7 µM,0.849 µM,7.16 µM,1.06 µM,3.43 µM,1.58 µM,8.22 µM
O=C(Cn1c2ccccc2c2ccncc21)N/N=C\c1ccc2ccccc2c1,16.5 µM,50.2 µM,17.7 µM,42.4 µM,22.2 µM,61.6 µM,14.8 µM,34.6 µM,13.8 µM,30 µM,23.5 µM,79.2 µM,27.8 µM,> 100 µM,19 µM,> 100 µM,19.2 µM,42 µM,17.3 µM,39.3 µM
CN(C)N=Nc1nn(C(=O)Nc2ccc(Cc3ccccc3)cc2)c2ccccc12,0.168 µM,> 100 µM,> 100 µM,> 100 µM,85.4 µM,> 100 µM,0.225 µM,3.12 µM,5.25 µM,> 100 µM,> 100 µM,> 100 µM,4.1 µM,> 100 µM,4.65 µM,> 100 µM,2.07 µM,> 100 µM,> 100 µM,> 100 µM
Nc1nc(Cl)nc2c1ncn2[C@@H]1O[C@H](COS(N)(=O)=O)[C@@H](O)[C@H]1O,0.0186 µM and 0.0192 µM,0.0421 µM and 0.0375 µM,0.00365 µM,0.0323 µM and 0.0465 µM,0.0202 µM and 0.0209 µM,0.0558 µM and 0.0554 µM,0.0244 µM and 0.0324 µM,0.0751 µM and 0.143 µM,0.0214 µM and 0.0266 µM,0.0556 µM and 0.0741 µM,0.0263 µM and 0.0256 µM,0.0869 µM and 0.0787 µM,0.0178 µM and 0.0171 µM,0.0562 µM and 0.0453 µM,0.0209 µM and 0.0258 µM,0.0737 µM and 0.08 µM,0.0185 µM and 0.0195 µM,0.0437 µM and 0.0429 µM,0.00684 µM,0.0333 µM
O=C(CN1C(=O)S/C(=C\C(Cl)=C\c2ccccc2)C1=O)NCCCn1ccnc1,1.66 µM,3.59 µM,3.14 µM,13 µM,1.22 µM,12.9 µM,10 µM,24.4 µM,1.98 µM,3.91 µM,2.4 µM,7.35 µM,2.85 µM,> 100 µM,2.03 µM,5.74 µM,2.8 µM,9.55 µM,3.45 µM,22.5 µM
COc1cc2c3cc1Oc1c(OC)c(OC)cc4c1C(Cc1ccc(cc1)Oc1cc(ccc1O)CC3N(C)CC2)N(C)CC4 (stereo not given),,4.27 µM and 4.79 µM,28.6 µM and 12 µM,72.7 µM and 24.7 µM,,25.3 µM and 23.8 µM,15.4 µM and 7.68 µM,28.9 µM and 21.4 µM,> 100 µM and 10.2 µM,> 100 µM and 38.5 µM,,31.4 µM,,> 100 µM and 34.8 µM,,28.4 µM,,27 µM and 24.8 µM,,34.7 µM
O=c1[nH]nc(-c2ccccc2)c2c(-c3ccccc3)onc12,0.329 µM,> 100 µM,11.2 µM,> 100 µM,0.96 µM,> 21.9 µM,0.72 µM,> 100 µM,5.47 µM,> 100 µM,0.255 µM,1.37 µM,0.812 µM,> 100 µM,2.12 µM,> 100 µM,,> 100 µM,,> 100 µM
O=C1COCCN1c1ccc(NCc2cn(C(=O)c3ccc(Cl)cc3)c3ccccc23)cc1,7.92 µM,> 100 µM,20.8 µM,> 100 µM,2.6 µM,52.6 µM,1.83 µM,33.5 µM,2.7 µM,> 100 µM,3.86 µM,39.1 µM,5.04 µM,> 100 µM,4.78 µM,49.5 µM,2.19 µM,15.3 µM,1.06 µM,> 100 µM
C=C1C(=O)O[C@H]2[C@H]1CC/C(CNC(=O)/C=C/c1ccc(Cl)cc1Cl)=C\CC[C@@]1(C)O[C@@H]21,1.44 µM,3.37 µM,3.24 µM,14.2 µM,1.74 µM,10.3 µM,1.62 µM,3.83 µM,1.2 µM,2.56 µM,2.09 µM,8.23 µM,1.37 µM,3.44 µM,1.42 µM,4.4 µM,1.55 µM,3.63 µM,1.74 µM,4.06 µM
CN(CCCN(C)CCC1CCCCC1)CCC1CCCCC1,1.27 µM,2.59 µM,3.76 µM,9.98 µM,2.04 µM,6.39 µM,1.46 µM,3.02 µM,3.46 µM,13.7 µM,2.26 µM,6.68 µM,4.85 µM,18.4 µM,2.62 µM,15.4 µM,2.19 µM,4.84 µM,5.3 µM,17.7 µM
COc1ccc(OC)c(/C=N/N=C2\C(=O)Nc3c(Cl)cc(Cl)cc32)c1,,> 100 µM,,> 100 µM,,19.7 µM,,> 100 µM,,> 100 µM,,83.5 µM,,> 100 µM,,> 100 µM,,68.8 µM,,79.4 µM
COc1cc2nncc(SCc3ccc(Cl)c(Cl)c3)c2cc1OC,,> 100 µM,,> 100 µM,,73 µM,,> 100 µM,,> 100 µM,,> 100 µM,,> 100 µM,,> 100 µM,,> 100 µM,,> 100 µM
c1ccc(/C(=N\Nc2ccc3ccccc3n2)c2ccccn2)cc1,0.484 µM,4.44 µM,1.29 µM,> 59.3 µM,2.56 µM,> 85.2 µM,0.211 µM,2.13 µM,0.509 µM,4.35 µM,4.42 µM,41.6 µM,0.456 µM,17.4 µM,1.25 µM,55.3 µM,0.604 µM,7.4 µM,1.21 µM,15.9 µM
CN(C)CC1=Nc2cccc3cccc(c23)N1,,34.7 µM,,> 100 µM,,30.4 µM,,> 100 µM,,25.8 µM,,> 100 µM,,> 100 µM,,32.3 µM,,35.5 µM,,> 100 µM
CCc1nc(N)nc(N)c1C#CC(C)c1cc(-c2ccnc(C)c2)c2oc(C)nc2c1 (stereo not given),< 0.01 µM,5.69 µM,< 0.0114 µM,12.1 µM,0.278 µM,3.78 µM,< 0.01 µM,6.39 µM,< 0.01 µM,5.54 µM,1.5 µM,13.9 µM,< 0.01 µM,47.1 µM,< 0.01 µM,12.1 µM,1.9 µM,10.6 µM,< 0.01 µM,5.92 µM
Clc1ccc(/C=C/c2nc(Cl)c(-c3ccc(Cl)cc3)c(Cl)n2)cc1,,> 100 µM,,> 100 µM,,64.5 µM,,> 100 µM,,> 100 µM,,> 100 µM,,> 100 µM,,> 100 µM,,> 100 µM,,> 100 µM
COC1OC(C(C)O)C2OC(C)(C)OC12 (stereo not given),,> 100 µM,,> 100 µM,,> 100 µM,,> 100 µM,,> 100 µM,,> 100 µM,,> 100 µM,,> 100 µM,,> 100 µM,,> 100 µM
COc1ccc(C=C2C(=O)NC(=O)NC2=O)cc1OCc1ccccc1,28.1 µg/mL,82.5 µg/mL,23.3 µg/mL,,22.9 µg/mL,,32.5 µg/mL,,52.9 µg/mL,,27.1 µg/mL,,57.3 µg/mL,,46.7 µg/mL,,25.6 µg/mL,79.4 µg/mL,36.9 µg/mL,
c1ccc2c(CN3CCC(C4CCN(Cc5cccc6ccccc56)CC4)CC3)cccc2c1,,3.59 µM and 3.89 µM,40.1 µM and > 100 µM,> 100 µM,2.77 µM and > 27.7 µM,,,19.4 µM and 14.2 µM,,32.2 µM and 34.5 µM,,> 100 µM,21.8 µM and 6.98 µM,> 72.4 µM,,> 100 µM,,15.2 µM and 37.1 µM,,21.4 µM and > 69.4 µM
NS(=O)(=O)c1ccc(N2N=C(c3cccs3)CC2c2ccccc2O)cc1 (stereo not given),1.07 µM,4.1 µM,1.23 µM,11 µM,0.437 µM,1.76 µM,0.829 µM,2.26 µM,1.84 µM,8.45 µM,0.845 µM,2.7 µM,0.907 µM,2.78 µM,1.05 µM,4.38 µM,1.2 µM,5.16 µM,2.67 µM,9.46 µM
CNc1ncc2cc(Oc3ccc(F)cc3F)c(=O)n(C)c2n1,> 25 µM,> 25 µM,> 25 µM,> 25 µM,9.33 µM,> 25 µM,> 25 µM,> 25 µM,> 25 µM,> 25 µM,> 25 µM,> 25 µM,> 25 µM,> 25 µM,> 25 µM,> 25 µM,> 25 µM,> 25 µM,> 25 µM,> 25 µM
